Assay results: ChEMBL document CHEMBL1165932, “Inhibition of Mycobacterium tuberculosis tyrosine phosphatase PtpA by synthetic chalcones: kinetics, molecular modeling, toxicity and effect on growth” (Bioorg Med Chem, 2010)
Activity calls are given as the source filed them. No cut-off for these calls is given here.

Key:
[1] = biological target: T1, Low molecular weight protein-tyrosine phosphatase A (Mycobacterium tuberculosis, UniProt P9WIA1); assay: Inhibition of Mycobacterium tuberculosis PTPA-mediated pNPP hydrolysis
T1 sequence (P9WIA1 whole entry): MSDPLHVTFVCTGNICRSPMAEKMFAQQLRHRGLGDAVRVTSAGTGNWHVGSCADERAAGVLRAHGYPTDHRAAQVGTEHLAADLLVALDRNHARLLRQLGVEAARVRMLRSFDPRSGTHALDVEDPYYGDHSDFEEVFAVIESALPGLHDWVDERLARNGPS

[2] = biological target: T2, Low molecular weight protein-tyrosine phosphatase A (Mycobacterium tuberculosis) (UniProt P9WIA1); assay: Competitive inhibition of Mycobacterium tuberculosis PTPA by Lineweaver-Burke plot analysis
T2 sequence (whole entry): T1 sequence (P9WIA1 whole entry)

[3] = system: Mycobacterium tuberculosis; assay: Antibacterial activity against Mycobacterium tuberculosis H37Rv infected in human THP1 cells assessed as reduction of bacterial burden at 40 uM after 96 hrs; format: functional; settings: THP-1, 96 h
THP-1 [4] = assay: Cytotoxicity against human THP1 cells at 40 uM after 24 hrs by flow cytometry; format: cell-based; settings: thp-1, 24 h
[5] = biological target: T2, Low molecular weight protein-tyrosine phosphatase A (Mycobacterium tuberculosis); assay: Inhibition of Mycobacterium tuberculosis PTPA-mediated dephosphorylation of VPS33B assessed as increase in phosphorylated VPS33B level after 15 mins by scintillation counting
[6] = biological target: T3, Phosphotyrosine-protein phosphatase PTPB (Mycobacterium tuberculosis) (UniProt P96830); assay: Inhibition of Mycobacterium tuberculosis PTPB at 100 uM after 20 mins by ELISA
T3 sequence (whole entry): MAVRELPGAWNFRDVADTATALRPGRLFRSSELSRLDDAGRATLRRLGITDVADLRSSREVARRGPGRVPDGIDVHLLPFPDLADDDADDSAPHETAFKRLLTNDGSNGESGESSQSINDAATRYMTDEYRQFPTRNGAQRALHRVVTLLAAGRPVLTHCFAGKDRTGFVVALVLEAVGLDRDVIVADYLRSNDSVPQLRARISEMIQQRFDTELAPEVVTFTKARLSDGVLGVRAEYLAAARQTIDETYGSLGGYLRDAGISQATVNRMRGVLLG

[7] = biological target: T4, Tyrosine-protein phosphatase non-receptor type 1 (Homo sapiens, UniProt P18031); assay: Inhibition of human PTP1B
T4 sequence (P18031 whole entry): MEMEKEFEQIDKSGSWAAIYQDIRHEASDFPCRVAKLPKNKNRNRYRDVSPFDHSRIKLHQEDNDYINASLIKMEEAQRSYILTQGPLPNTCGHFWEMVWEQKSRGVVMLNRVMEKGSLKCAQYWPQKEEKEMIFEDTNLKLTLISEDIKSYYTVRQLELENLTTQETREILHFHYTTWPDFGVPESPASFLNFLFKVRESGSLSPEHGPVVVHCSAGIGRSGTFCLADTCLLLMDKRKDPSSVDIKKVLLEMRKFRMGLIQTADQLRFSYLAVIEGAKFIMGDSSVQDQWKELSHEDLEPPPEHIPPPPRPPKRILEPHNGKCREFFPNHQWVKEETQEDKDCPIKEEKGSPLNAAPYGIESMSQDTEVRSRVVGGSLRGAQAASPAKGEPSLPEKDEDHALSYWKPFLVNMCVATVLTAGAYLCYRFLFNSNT

[8] = system: Mycobacterium tuberculosis; assay: Antibacterial activity against Mycobacterium tuberculosis H37Rv infected in human THP1 cells assessed as reduction of bacterial burden at 20 uM after 48 hrs; format: functional; settings: for inhibition at 20 µM: THP-1, 48 h; for inhibition: THP-1
[9] = biological target: T5, Phosphotyrosine-protein phosphatase PTPB (Mycobacterium tuberculosis, UniProt P96830); assay: Inhibition of N-terminal histidine-tagged Mycobacterium tuberculosis PTPB expressed in Escherichia coli BL21 (DE3) after 45 mins by fluorescence assay
T5 sequence (P96830 whole entry): T3 sequence (whole entry)

THP-1 [10] = assay: Cytotoxicity against human THP1 cells at 4 uM after 24 hrs by flow cytometry; format: cell-based; settings: thp-1, 24 h
[11] = system: Mycobacterium tuberculosis; assay: Antibacterial activity against Mycobacterium tuberculosis H37Rv infected in human THP1 cells assessed as reduction of bacterial burden at 10 uM after 24 hrs; format: functional, organism-based; settings: THP-1
[12] = biological target: T1, Low molecular weight protein-tyrosine phosphatase A; assay: Inhibition of Mycobacterium tuberculosis PTPA after 20 mins by ELISA

SMILES | Ki [1] [µM] | inhibition [2] | inhibition at 40 µM [3] [%] | Activity (THP-1 [4]) [%] | inhibition [5] | inhibition [6] | IC50 [7] [µM] | inhibition at 20 µM [8] [%] | IC50 [9] [µM] | Activity (THP-1 [10]) [%] | inhibition [8] | inhibition [11] | IC50 [12] [µM]
O=C(/C=C/c1cccc2ccccc12)c1ccccc1O | 9.1 | Active | 77 | 2 | Dose-dependent effect | inactive | 158 | 50 | – | – | – | – | –
NC1=S2C=CC(S(N)(=O)=O)=C2C(=O)C1=O (configuration not stated) | – | – | – | – | – | – | – | – | 0.44 | – | – | – | –
COc1ccc(OC)c(C(=O)/C=C/c2ccc3ccccc3c2)c1 | 5.4 | Active | 90 | 83.1 | – | inactive | 145 | 50 | – | 1.3 | – | – | –
COc1ccc(C(=O)/C=C/c2ccc3ccccc3c2)cc1OC | 4.9 | Active | 40 | 1.6 | – | inactive | 1260 | – | – | – | inactive | – | –
COc1ccc(OC)c(C(=O)/C=C/c2cccc3ccccc23)c1 | 21.3 | Active | 90 | 77.8 | – | inactive | 214 | 77 | – | 0.9 | – | inactive | –
COc1cc(C(=O)/C=C/c2ccc3ccccc3c2)ccc1O | 17.9 | Active | 80 | 10.5 | – | inactive | 123 | – | – | 0.9 | inactive | – | 53.7
